The results in this text go back to patent US9868722B2, “Monocyclic pyrimidine/pyridine compounds as inhibitors of P97 complex” (Cleave Biosciences, Inc., priority 2013, dated 2018).

pIC50: −log10 of the molar value. Structures can show the parent of a compound that is named as a salt. Where two headings read alike, the source gives them in different places. Bounds are passed on as bounds.

One assay concerns the target p97 (Homo sapiens, UniProt P55072). Put plainly: P97 ATPase biochemical assay (ADP Glo). The method, then:
The ATPase assay is performed according the following protocol: Purified enzyme (20 nM p97), substrate (20 μM ATP) and a dose titration of compounds are mixed in buffer (50 mM TRIS pH 7.5, 20 mM MgCl2, 0.02% TX-100, 1 mM DTT, 0.2% (v/v) glycerol) and incubated at 37° C. for 15 minutes. The reaction is terminated and the level of product generated is measured using the ADP Glo Assay Kit (Promega, Madison Wis.). Plotting product generated versus compound concentration and using a four-parameter fit model generates an IC50 value for each compounds.
The p97 assay is an initial screening assay used to determine inhibitory activity of the monocyclic pyrimidine compounds of the invention against the p97 complex. As discussed above, inhibition of activity of the p97 proteosome complex can enable apoptosis and cause elimination of neoplastic cells (cancer cells). The method follows that of Christianson in Nat. Cell Biol., (2011) 14:93.
Assay Buffer is a mixture of 50 mM TRIS pH 7.5, 20 mM MgCl2, 0.02% TX-100, 1 mM DTT and 0.2% (v/v) Glycerol. The well plate is Platetype: Corning 3674, 384w plate. The identification kit is an ADP glo kit (Promega): stop buffer, detection reagent.
Serial dilute compound in DMSO in a 1:3.33-fold 10 point serial dilution.
0.5 μL compound serial diluted in DMSO (Final Conc. 10%)
2 μL ATP (Final Conc.=20 uM, diluted in assay buffer)
2.5 μL p97 (Final Conc.=20 nM, diluted in assay buffer)
Incubate at 37 degC for 15 min.
Add 5 μL of stop buffer, incubate at RT for 40 min.
Add 10 μL of detection reagent, incubate at RT for 30 min.
Read luminescence on Envision plate reader. • Upon obtaining the data from the luminescence reading, the data may be analyzed as follows:
Normalize luminescence data using no enzyme (full inhibition) and no compound (no inhibition) controls. Plot normalized luminescence data against log-transformed concentration values and fit to a sigmoidal curve to determine IC50 values (done in Collaborative Drug Discovery software).
The results are reported on the following Table for Examples A-EE and the E1-E4 compounds as 50 percent Inhibitory concentration at candidate doses of less than 30 nM, less than 100 nM, less than 300 nM and less than 1000 nM for the p97 inhibition assay.

The test system of a further assay is A549 cells. Briefly: Cultured cancer cell viability assay (cell titer glo, A549 CTG). It is filed as cell-based. To be noted: Homo sapiens. An excerpt: Anti-tumor effects are monitored in cultured cancer cells after several days of compound treatment. The cell titer glo assay (Promega) measures the amount of ATP present as a proxy for cellular viability. Cellular counting is done using high-content microscopy followed by image analysis. A hanging drop 3D-culture system (3D Biomatrix) is used followed by cell titer glo to measure growth in a tumor-like environment.
The cellular assay provides information about the anti-neoplastic activity of the compounds of the invention. The compounds are tested against cultured cancer cells to determine whether or not the compounds of the invention are capable of intersecting with cancer cells to minimize or eliminate such cells. The assay involves establishing colonies of such cells and then treating them with the test compound under specified conditions and analysis regime to determine results.
(§1) Plate 25 μL of A549 cells in every well of 384-well plate using multidrop.
One (1) white plate for viability at 500 cells/well.
Serial dilute compounds with a 10 point 2-fold serial dilution in DMSO to make 250× stock compound solution
Dilute compounds 1:125 in cell culture media to make a 2× solution Add 25 μl of dilution compounds to cell plates in well duplicates
Put cells back in incubator (6 hr incubation for black plates, 72 hr incubation for white plates).
Thaw an aliquot of frozen cell titer glo (Promega G7572) at room temperature.
Add 45 mL of NaCl/PBS solution to 5 ml of cell titer glo (10×).
Remove white plates from incubator, leave at room temp for 30 minutes.
Add 25 μl of diluted cell titer glo to each well.
Shake plate for >1 minute.
Incubate plate for >5 minutes to stabilize luminescence. • Luminescence is stable for up to 3 hours.
Read luminescence on plate reader
The results are reported on the following Table I for Examples A-EE and the E1-E4 compounds as 50 percent Inhibitory concentration at candidate doses of less than 1 μM, less than 3 μM and less than 10 μM for both of the K48 antibody and the p53 (CTG) antibody assays

The subject of assay [1] is K48 poly-Ubiquitin accumulation in A549 cells. Briefly: A549 K48 poly-ubiquitin accumulation immunofluorescence assay. It is filed as cell-based. To be noted: Homo sapiens. As to the method:
Image-analysis is used to generate quantitative data from these assays that can be fit to a four-parameter sigmoid curve to derive IC50 values. Substrates of the ubiquitin-proteasome system, such as p53, are monitored after tumor cell lines are incubated with compounds for several hours. Accumulation of these proteins indicates an inhibition of proteasome-mediated degradation. Accumulation of lysine-48 chain linkage of poly-ubiquitin is also monitored by immunofluorescence as an indicator of ubiquitin-proteasome system inhibition. Both LC3 and SQSTM1 are mediators of autophagy. The localization and amounts of these proteins are monitored by immunofluorescence and report on the activity and inhibition of autophagy in response to p97 inhibition.
as §1
Two (2) black plates for IF at 2500 cells/well
Serial dilute compounds with a 10 point 2-fold serial dilution in DMSO to make 250× stock compound solution Dilute compounds 1:125 in cell culture media to make a 2× solution Add 25 μl of dilution compounds to cell plates in well duplicates Put cells back in incubator (6 hr incubation for black plates, 72 hr incubation for white plates).
Incubate cells in black plates with compound at 37 degC for 6 hrs. add 15 μL of 16% Paraformaldehyde (PFA) directly into media of each well, incubate at room temp for 5 min, flick plate and wash in 50 μL of PBS block in 50 μL of Blocking Buffer for 30 minutes (can go up to several hours) Blocking buffer: 1×PBS, 1% BSA, 0.3% Triton-X100, Hoechst (1:10,000) incubate in 25 μL of primary antibody in blocking buffer at 4 degC over night […]
Secondary Antibodies: • AlexaFluor488 Goat anti-Rabbit 1:2,000 (Life Tech A11008) • AlexaFluor555 Goat anti-Mouse 1:2,000 (Life Tech A21422) incubate in 25 μl of secondary antibody (1:2,000) in blocking buffer for 1-2 hrs at room temp (alexafluor488-anti-Rabbit/alexafluor555-anti-Mouse) Image plates in high content microscope with 405 nm, 488 nm and 555 nm filters Nuclear counts and cellular intensities of each markers are measured using Hoechst as a nuclear marker with an automated image analysis protocol using Matlab software (Math Works) The results are reported on the following Table I for Examples A-EE and the E1-E4 compounds as 50 percent Inhibitory concentration at candidate doses of less than 1 μM, less than 3 μM and less than 10 μM for both of the K48 antibody and the p53 (CTG) antibody assays

[2] abbreviates: 20 nM p97, 20 uM ATP, 37 degC 15 min.
The mark [3] stands for this setting: A549, Table II, preliminary assays, read-out: Cell Titre Glow Assay IC50.
Where [4] appears, read: A549 cells, 72 hr incubation, cell titer glo, read-out: A549 CTG IC50.
Setting [5] is: A549, Table II, preliminary assays, read-out: K48 poly-Ubiquitin Accumulation.
[6] abbreviates: A549 cells, 6 hr incubation, K48-Ub antibody, read-out: A549 K48 IC50.

p97, sequence (P55072 whole entry): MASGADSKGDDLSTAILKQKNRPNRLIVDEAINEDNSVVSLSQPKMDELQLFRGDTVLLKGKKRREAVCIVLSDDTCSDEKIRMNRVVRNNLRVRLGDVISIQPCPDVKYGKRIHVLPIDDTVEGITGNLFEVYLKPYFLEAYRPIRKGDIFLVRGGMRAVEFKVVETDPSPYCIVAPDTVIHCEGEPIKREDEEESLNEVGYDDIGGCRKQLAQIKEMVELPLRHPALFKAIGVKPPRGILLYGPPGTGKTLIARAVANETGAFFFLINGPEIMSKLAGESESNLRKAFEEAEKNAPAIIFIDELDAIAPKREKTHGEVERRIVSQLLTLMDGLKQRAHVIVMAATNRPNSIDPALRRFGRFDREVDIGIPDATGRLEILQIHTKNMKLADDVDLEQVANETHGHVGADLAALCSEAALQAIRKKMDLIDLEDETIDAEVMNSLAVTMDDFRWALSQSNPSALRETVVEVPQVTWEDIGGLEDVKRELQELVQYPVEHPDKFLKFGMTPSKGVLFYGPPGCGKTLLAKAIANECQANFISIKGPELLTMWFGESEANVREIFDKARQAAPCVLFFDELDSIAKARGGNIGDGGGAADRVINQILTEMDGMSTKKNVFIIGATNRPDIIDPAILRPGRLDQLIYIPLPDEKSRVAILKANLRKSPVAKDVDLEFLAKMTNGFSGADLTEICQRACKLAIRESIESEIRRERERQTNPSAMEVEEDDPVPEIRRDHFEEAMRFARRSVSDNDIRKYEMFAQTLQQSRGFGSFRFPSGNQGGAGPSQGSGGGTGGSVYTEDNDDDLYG

For the compound `Cc1cc(NCc2ccccc2)nc(-n2c(C)cc3c(C(N)=O)cccc32)n1` [Example 1, 1-[4-(benzylamino)-6-methylpyrimidin-2-yl]-2-methyl-1H-indole-4-carboxamide], the pIC50 against p97 (setting [2]) was > 7.00; against p97 (Table II, preliminary assays), 7.38; in the assay with A549 cells (setting [3]), 5.70; with A549 cells (setting [4]) it was > 5.52; in assay [1] (setting [5]), 5.52; in assay [1] (setting [6]), > 5.00.
Take `Cc1cnc(-n2c(C)cc3c(C(N)=O)cccc32)nc1NCc1ccccc1` [Example 2, 1-[4-(benzylamino)-5-methylpyrimidin-2-yl]-2-methyl-1H-indole-4-carboxamide]: the pIC50 against p97 (setting [2]) is > 7.52; against p97 (Table II, preliminary assays), 7.66; in the assay on A549 cells (setting [3]), 6.01; with A549 cells (setting [4]), > 6.00; in assay [1] (setting [5]), 5.80; in assay [1] (setting [6]) it was > 5.52.
As for `COc1cnc(-n2c(C)cc3c(C(N)=O)cccc32)nc1NCc1ccccc1` [Example 3, 1-[4-(benzylamino)-5-methoxypyrimidin-2-yl]-2-methyl-1H-indole-4-carboxamide], the pIC50 was > 7.52 against p97 (setting [2]); 8.15 against p97 (Table II, preliminary assays); 6.33 in the assay with A549 cells (setting [3]); > 6.00 in the assay on A549 cells (setting [4]); 6.05 in assay [1] (setting [5]); > 6.00 in assay [1] (setting [6]).
With `Cc1cc2c(C(N)=O)cccc2n1-c1ncc(C(F)(F)F)c(NCc2ccccc2)n1` [Example 4, 1-[4-(benzylamino)-5-(trifluoromethyl)pyrimidin-2-yl]-2-methyl-1H-indole-4-carboxamide], the figures for the pIC50 (at p97 (setting [2]); with A549 cells (setting [4]); in assay [1] (setting [6])) were > 7.52, > 5.52 and > 5.52, respectively.
For `Cc1cc2c(C(N)=O)cccc2n1-c1ncc(Cl)c(NCc2ccccc2)n1` [Example 5, 1-[4-(benzylamino)-5-chloropyrimidin-2-yl]-2-methyl-1H-indole-4-carboxamide], the pIC50 at p97 (setting [2]) is > 7.52; at p97 (Table II, preliminary assays) it was 7.92; in the assay with A549 cells (setting [3]), 5.75; in the assay on A549 cells (setting [4]), > 5.52; in assay [1] (setting [5]) it was 5.85; in assay [1] (setting [6]), > 5.52.
In the case of `CCc1cnc(-n2c(C)cc3c(C(N)=O)cccc32)nc1NCc1ccccc1` [Example 6, 1-[4-(benzylamino)-5-ethylpyrimidin-2-yl]-2-methyl-1H-indole-4-carboxamide], the results for the pIC50 (against p97 (setting [2]); in the assay on A549 cells (setting [4]); in assay [1] (setting [6])) were > 7.52, > 6.00 and > 6.00, respectively.
For the compound `COc1c(C)nc(-n2c(C)cc3c(C(N)=O)cccc32)nc1NCc1ccccc1` [Example 7, 1-[4-(benzylamino)-5-methoxy-6-methylpyrimidin-2-yl]-2-methyl-1H-indole-4-carboxamide], the pIC50 is > 7.52 at p97 (setting [2]), > 5.52 in the assay on A549 cells (setting [4]) and > 5.52 in assay [1] (setting [6]).
In the case of `Cc1nc(-n2c(C)cc3c(C(N)=O)cccc32)nc(NCc2ccccc2)c1C(C)C` [Example 8, 1-[4-(benzylamino)-6-methyl-5-(propan-2-yl)pyrimidin-2-yl]-2-methyl-1H-indole-4-carboxamide], the pIC50 against p97 (setting [2]) was > 7.52; in the assay on A549 cells (setting [4]) it was > 5.52; in assay [1] (setting [6]) it was > 6.00.
`Cc1cc2c(C(N)=O)cccc2n1-c1ncc(N)c(NCc2ccccc2)n1` [Example 17, 1-[5-amino-4-(benzylamino)pyrimidin-2-yl]-2-methyl-1H-indole-4-carboxamide]: the pIC50 against p97 (setting [2]) was > 6.00.
Still for that read-out and setting: next, `Cc1cc2c(C(N)=O)cccc2n1-c1ncc(CN(C)C)c(NCc2ccccc2)n1` [Example 21, 1-[4-(benzylamino)-5-[(dimethylamino)methyl]pyrimidin-2-yl]-2-methyl-1H-indole-4-carboxamide]: > 6.00.
Same read-out and setting: next, `Cc1cc2c(C(N)=O)cccc2n1-c1ncc(CN)c(NCc2ccccc2)n1` [Example 22, 1-[5-(aminomethyl)-4-(benzylamino)pyrimidin-2-yl]-2-methyl-1H-indole-4-carboxamide]: > 6.52; `CNCc1cnc(-n2c(C)cc3c(C(N)=O)cccc32)nc1NCc1ccccc1` [Example 23, 1-[4-(benzylamino)-5-[(methylaminoc)methyl]pyrimidin-2-yl]-2-methyl-1H-indole-4-carboxamide]: > 6.00.
On the same count and under the same terms, next, `Cc1cc2c(C(N)=O)cccc2n1-c1ncc(OCCN)c(NCc2ccccc2)n1` [Example 25, 1-[5-(2-aminoethoxy)-4-(benzylamino)pyrimidin-2-yl]-2-methyl-1H-indole-4-carboxamide]: > 6.00; `Cc1cnc(-n2c(CN)cc3c(C(N)=O)cccc32)nc1NCc1ccccc1` [Example 31, 2-(aminomethyl)-1-[4-(benzylamino)-5-methylpyrimidin-2-yl]-1H-indole-4-carboxamide Hydrochloride]: > 6.00.
Take `CCc1cnc(-n2c(CN)cc3c(C(N)=O)cccc32)nc1NCc1ccccc1` [Example 32, 2-(aminomethyl)-1-[4-(benzylamino)-5-ethylpyrimidin-2-yl]-1H-indole-4-carboxamide]: the pIC50 against p97 (setting [2]) is > 6.52.
Still for that read-out and setting: next, `Cc1cc2c(CN)cccc2n1-c1ncc(C(C)C)c(NCc2ccccc2)n1` [Example 39, 2-[4-(aminomethyl)-2-methyl-1H-indol-1-yl]-N-benzyl-5-(propan-2-yl)pyrimidin-4-amine]: > 6.00.
